From patent publication EP1262195A1, “VASOACTIVE AGENTS” (Takeda Chemical Industries, Ltd., priority 2000, dated 2001)

Key:
human GPR14 = target: T1, human GPR14 (Homo sapiens, UniProt Q9UKP6); experiment: Inhibition of binding of [125I]-labeled human urotensin II to GPR14 using human GPR14-expressing CHO cell membrane fraction; details: concentration showing 50% inhibition of human GPR14 binding activity, 1nM [125I]-labeled human urotensin II, 25°C for 3 hours, read-out: Inhibitory concentration
T1 construct: expressed in transfected cells
T1 sequence (Q9UKP6 1-389): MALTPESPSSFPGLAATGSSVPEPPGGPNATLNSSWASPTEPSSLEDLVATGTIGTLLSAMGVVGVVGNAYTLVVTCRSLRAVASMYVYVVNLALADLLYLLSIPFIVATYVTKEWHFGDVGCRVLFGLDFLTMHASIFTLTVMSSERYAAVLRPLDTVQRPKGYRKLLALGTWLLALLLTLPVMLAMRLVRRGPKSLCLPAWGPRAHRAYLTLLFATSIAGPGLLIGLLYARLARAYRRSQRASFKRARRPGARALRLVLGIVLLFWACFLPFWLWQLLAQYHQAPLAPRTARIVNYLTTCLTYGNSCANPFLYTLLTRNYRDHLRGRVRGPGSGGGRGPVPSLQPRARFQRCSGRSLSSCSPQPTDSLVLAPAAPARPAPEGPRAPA
Experimental: To 1 x 10^8 CHO/GPR14 cells were added 10 ml of homogenate buffer (10 mM NaHCO3, 5 mM EDTA, 0.5 mM PMSF, 1µg/ml pepstatin, 4µg/ml E64, 20µg/ml leupeptin), and disrupted using Polytron (12,000 rpm, 1 minute). Cell debris solution was centrifuged at 1,000g for 15 minutes to obtain a supernatant. The supernatant was then […] (in Beckman type 30 rotor, 30,000 rpm, 1 hour), and the resultant precipitant was collected as human GPR14-expressing CHO cell fraction.
Isotope-labeled human urotensin II to be used in experiments for testing inhibition of binding was prepared as described below. 5 µg of human urotensin II (available from Peptide Institute, Inc.) was dissolved in 25µl of 0.4M sodium acetate (pH 5.6). […]
Human GPR14-expressing CHO cell fraction was diluted in a membrane diluting buffer (20mM phosphate buffer (pH7.3), 150mM NaCl, 5mM MgCl2,0.1% BSA, 0.05% CHAPS, 0.5mM PMSF, 0.1µg/ml Pepstatin, 20µg/ml Leupeptin, 4µg/ml E-64) to prepare a solution of cell membrane fraction (protein concentration:3µg/ml) for assay. […] Next, the filter was washed three times with membrane diluting buffer (0.2ml), added with 20µl of Microscinti 20 (Packard), and determined for radioactivity in Topcount (Packard). Specific-binding is calculated by subtracting non-specific binding from the total binding. […]

[1] = target: T2, human GPR14-expressing CHO cell (Homo sapiens, UniProt Q9UKP6); experiment: Change in intracellular calcium concentration in human GPR14-expressing CHO cells (FLIPR), antagonist activity assay; type: cell-based; details: 10µl of 10nM urotensin II added, Fluo3, FLIPR
T2 construct: expressed in transfected cells
T2 sequence (Q9UKP6 1-389): T1 sequence (Q9UKP6 1-389)
Experimental: After the transformant E. coli DH5α/pcDNA3.1-hGPR14 prepared in Reference Example 2 was cultured, plasmid DNA for pcDNA3.1-hGPR1 was prepared by using Plasmid Midi Kit (Qiagen). The plasmid DNA was introduced into CHO dhfr cells using CellPhect Transfection Kit (Amersham Pharmacia Biotech) according to the protocol appended thereto. 10µg of DNA was co-precipitated with calcium phosphate to prepare a suspension which was then added to a 10cm petri dish on which 5 x 10^5 or 1 x 10^6 CHO dhfr^- cells had previously been inoculated 24 hours before then. Cells were cultured in a MEMα medium containing 10% fetal bovine serum for one day, subcultured, and cultured in a selection medium, a MEMα medium containing 0.4 mg/ml G418 (GIBCO BRL) and 10% dialysis fetal bovine serum. Colonies of transformed cells (CHO/hGPR14), which were human GPR14-expessing CHO cells growing in the selection medium, were selected.
GPR14-expressing CHO cells were inoculated on a 96-well plate at 1×10^4 cell/well, cultured for 48 hours, and then washed with 0.1ml of HBSS containing 20mM HEPES(pH7.4), 1% FCS and 1% penicillin-streptomycin (hereinafter referred to as "wash buffer"). Next, 100µl of another wash buffer containing 4µM Fluo3, 0.04% pluronic acid and 2.5mM probenicid (hereinafter referred to as "reaction buffer") was added thereto for reaction at 37°C for 1 hour. […]

IC50 (human GPR14) [nM] | Compound | urotensin II-induced increase in intracellular calcium concentration [1]
33 | Nc1c2c(nc3ccccc13)N(Cc1ccccc1)CC2 [compound 3] | 
 | 1-benzyl-6-bromo-2,3-dihydro-1H-pyrrolo [2,3-b] quinoline-4-ylamine [Synthesis Example 1] | inhibited
2.4 | Nc1c2c(nc3ccc(Br)cc13)N(Cc1ccccc1)CC2 [compound 2] | inhibited
